Assay: Compound was tested for their chelating potential (free ligand) determined by distribution coefficient method.
Format: ADME
Settings: octanol/water

First: CCCCCCn1ccc(=O)c(O)c1C
Second: CCCCCn1ccc(=O)c(O)c1C
The “mean log D” value of the first is higher: 1.9 for the first, 1.24 for the second.

Same assay, conditions: octanol/water; read-out: mean log D

First: CCCc1oc(C)cc(=O)c1O
Second: CCCCc1oc(C)cc(=O)c1O
The logD of the first is lower: 1.4 for the first, 1.92 for the second.

Going from `CCCn1cccc(O)c1=O` to `CCCCn1cccc(O)c1=O`, the logD rises from 0.69 to 1.18.

Going from `Cc1occc(=O)c1O` [MALTOL] to `CCc1occc(=O)c1O` [E637], the logD rises from 0.05 to 0.63.

First: CCCCn1ccc(=O)c(O)c1C
Second: NCCn1ccc(=O)c(O)c1
The logD of the first is higher: 0.71 for the first, -0.66 for the second.

Going from `CCCCOCc1cc(=O)c(O)co1` to `CCCOCc1cc(=O)c(O)co1`, the logD falls from 0.78 to 0.3.

Compared with `COCc1cc(=O)c(O)co1`, `CCOCc1cc(=O)c(O)co1` is higher in logD: -0.62 for the first, -0.38 for the second.

Going from `Cc1cc(=O)c(O)co1` to `Cc1cc(=O)c(O)c(C)o1`, the logD rises from -0.59 to 0.44.

Compared with `Oc1cccc2cccnc12` [OXYQUINOLINE], `O=c1cccccc1O` [TROPOLONE] is lower in logD: 1.87 for the first, -0.14 for the second.

Going from `CCn1cccc(O)c1=O` to `Cn1cccc(O)c1=O`, the logD falls from 0.2 to -0.28.

First: O=c1ccocc1O
Second: CCc1oc(C)cc(=O)c1O
The logD of the first is lower: -0.92 for the first, 1.07 for the second.

From ChEMBL document CHEMBL1129080, “Synthesis, physicochemical properties, and biological evaluation of hydroxypyranones and hydroxypyridinones: novel bidentate ligands for cell-labeling” (J Med Chem, 1996)
